# Assays:
# Assay type in all cases: biochemical
# FPTase = target: T1, FPTase (Homo sapiens, UniProt P49354+P49356); assay: In vitro inhibition of recombinant farnesyl-protein transferase (transferase assay); conditions: 650 nM Ras-CVLS, 100 nM farnesyl diphosphate, 30 °C
# T1 construct: made in house
# Source text: Molecular biological manipulations. To construct the C-terminus CAAX box routants, pUC-[L68]RAS1(term.) was digested with the restriction enzymes HincII and NarI to create a vector into which oligonucleotides containing new C-terminal sequences could be ligated. Except where indicated, the amino acids preceding the CAAX sequence are SLK. To simplify the nomenclature, [L68]RAS1 (term.)SLKCVLS (J.B. Gibbs et al., Proc. Natl. Acad Sci. U.S.A., 86:6630 (1989)) will be referred to as Ras-CVLS, and this convention is used for all other mutants. The substrate for Frase was Ras-CVLS. The substrate for GGPTase-I was Ras-CAIL.
# Transferase Assays. Isoprenyl-protein transferase activity assays were carried out at 30 ° C. unless noted otherwise. A typical reaction contained (in a final volume of 50 μL): [^3 H]farnesyl diphosphate or [^3 H]geranylgeranyl diphosphate, Ras protein, 50 mM HEPES, pH 7.5, 5 mM MgCl2, 5 mM dithiothreitol and isoprenyl-protein transferase. The FPTase employed in the assay was prepared by recombinant expression as described in Omer, C. A., Kral, A. M., Diehl, R. E., Prendergast, G. C., Powers, S., Allen, C. M., Gibbs, J. B. and Kohl, N. E. (1993) Biochemistry 32:5167-5176. After thermally pre-equilibrating the assay mixture in the absence of enzyme, reactions were initiated by the addition of isoprenyl-protein transferase and stopped at timed intervals (typically 15 min) by the addition of 1M HCl in ethanol (1 mL). The quenched reactions were allowed to stand for 15 m (to complete the precipitation process). After adding 2 mL of 100% ethanol, the reactions were vacuum-filtered through Whatman GF/C filters. Filters were washed four times with 2 mL aliquots of 100% ethanol, mixed with scintillation fluid (10 mL) and then counted in a Beckman LS3801 scintillation counter.
# (§1) For inhibition studies, assays were run as described above, except inhibitors were prepared as concentrated solutions in 100% dimethyl sulfoxide and then diluted 20-fold into the enzyme assay mixture. IC50 values were determined with both transferase substrates near KM concentrations. […]
# bGGPTase-I = target: T2, bGGPTase-I (Bos taurus, UniProt P29702+Q5EAD5); assay: In vitro inhibition of geranylgeranyl protein transferase type I purified from bovine brain (transferase assay); conditions: 500 nM Ras-CAIL, 100 nM geranylgeranyl diphosphate, 30 °C
# T2 construct: Cerebral lobes from bovine brains were homogenized in lysis buffer; from tissue; host or cells: bovine brain (cerebral lobes)
# Procedure: Purification of isoprenyl-protein transferases. All purification steps were performed at 4 ° C. Cerebral lobes from bovine brains were homogenized in lysis buffer containing 50 mM Tris-Cl, pH 8.0, 1 mM EGTA, 1 mM MgCl2, 5 mM dithiothreitol, 10 μg/mL aprotinin, 0.5 mM phenylmethyl sulfonyl fluoride (PMSF), 2 μg/mL antipain and 2 μg/mL leupeptin (M.D. Schaber et al. J. Biol. Chem., 265:14701 (1990)). Cellular debris and membranes were removed by centrifugation (10 000 g for 20 rain followed by 100 000 g for 30 minutes). The supematant was loaded directly onto a column (30 cm × 20 cm^2) of DEAE-Sephacel that had been equilibrated with lysis buffer. The column was washed with the same buffer and proteins were eluted with a linear gradient of NaCl (0-500 mM, 1 L+L) in the same buffer. Fractions (20 mL) were collected and those containing different transferase activities were pooled separately. This procedure resolved FTase and GGPTase-II from GGPTase-I. Each pool was then applied to an ω-Aminooctyl agarose colurctn (30 cm×4.9 cm^2) and eluted with a linear gradient of NaCl (0-500 mM, 500 mL+500 mL) in lysis buffer. Fractions containing both FTase and GGPTase-II were pooled. The GGPTase-I (termed "bGGPTase-I") so obtained was utilized in the assay described below.
# Molecular biological manipulations. To construct the C-terminus CAAX box routants, pUC-[L68]RAS1(term.) was digested with the restriction enzymes HincII and NarI to create a vector into which oligonucleotides containing new C-terminal sequences could be ligated. Except where indicated, the amino acids preceding the CAAX sequence are SLK. […]
# Transferase Assays. […] Filters were washed four times with 2 mL aliquots of 100% ethanol, mixed with scintillation fluid (10 mL) and then counted in a Beckman LS3801 scintillation counter.
# as §1
# hGGPTase-I = target: T3, hGGPTase-I (Homo sapiens, UniProt P49354+P53609); assay: In vitro inhibition of recombinant human geranylgeranyl protein transferase type I (transferase assay); conditions: 500 nM Ras-CAIL, 100 nM geranylgeranyl diphosphate, 30 °C
# T3 construct: made in house; host or cells: E. coli BL21(DE3), strain RD578
# Source text: Cloning of human GGPTase-I βGGI subunit cDNAs. Approximately 1 nmol of GGPTase-I-I purified from bovine brain as described in Moomaw, J.F. and ,Casey, P.J. (1992) J Biol Chem 267:17438-17443, was subjected to electrophoresis on a 11% SDS-polyacrylamide gel and transferred to nitrocellulose paper. The nitrocellulose paper was then stained with Poneeau S to localize the subunit polypeptides. The 48 kDa and 43 kDa bands were excised from the nitroeellulose and sent to Harvard Microchem (Cambridge, Mass.) for processing. High-confidence sequences of five βGGI subunit peptides were obtained. The sequences of these peptides are listed below:
# Two degenerate oligonucleotide primers [GCTC-GGATCC-C-(A/G)AA-(A/G)TT-NGT-(A/G)TA-(T/C)TG-(A/G)A (SEQ.ID.NO.:6) and GTCGG-GAATTC-ACN-AT(A/C/T)-GCN-TT(C/T)-TT(C/T)-GC (SEQ.ID.NO.:7)] were synthesized based on portions of two βGGI subunit peptide sequences [IFQYTNFEK (SEQ.ID.NO.:3) (antisense oligo) and TIAFFLSGLDMLD (SEQ.ID.NO.:I) respectively]. The polymerase chain reaction (PCR) (Saiki, R. K., Gelfand, D. H., Stoffel, S., Scharf, S. J., Higuchi, R., Horn, G. T., Mullis, K. B. and Erlich, H. A. (1988) Science 239:[…]) was performed using DNA obtained from a bovine brain eDNA library as template (Vogel, U.S., Dixon, R. A. F., Schaber, M.D., Diehl, R. E., Marshall, M. S., Scoinick, E. M., Sigal, I. S. and Gibbs, J. B. (1988) Nature 335:90-93). […]
Compound,IC50 (FPTase),IC50 (bGGPTase-I),IC50 (hGGPTase-I)
"CC(C)C[C@H](NC(=O)[C@@H](/C=C/[C@@H](NC[C@@H](N)CS)C(C)C)C(C)C)C(=O)O [5(S)-[2(R)-amino-3-mercaptopropylamino]-6-methyl(R)-i-propyl-3,4-E-heptenoyl-leucine]",70 nM,21 nM,
CC[C@H](C)[C@H](NC(=O)[C@@H](NC[C@@H](N)CS)C(C)C)C(=O)N[C@@H](CC(C)C)C(=O)O [N-(2(R)-amino-3-mercaptopropyl)-valyl-isoleucyl-leucine],800 nM,1.9 nM,23 nM
CC[C@H](C)[C@@H](CO[C@H](C(=O)N[C@@H](CC(C)C)C(=O)O)C(C)C)NC[C@@H](N)CS [N-[2(S)-(2(S)-(2(R )-amino-3-mercaptopropylamino)-3(S)-methylpentyloxy)-3-methylbutanoyl]-leucine],450 nM,37 nM,

# Reference: patent US5470832A, “Inhibitors of geranylgeranyl-protein transferase” (Merck & Co., Inc., priority 1994, dated 1995)
